Results from article PMC7832312, “Enhancing the Physiochemical Properties of Puerarin via L-Proline Co-Crystallization: Synthesis, Characterization, and Dissolution Studies of Two Phases of Pharmaceutical Co-Crystals” (International Journal of Molecular Sciences, 2021).

Columns and labels:
HEK-293 cell lines = assay: Cytotoxicity evaluation by MTT assay, HEK-293; assay type: cell-based, human; details: HEK-293, culturing 24 h
Experimental: (§1) CT-26 and HEK-293 cell line was purchased from American Type Culture Collection (Manassas, VA, USA). The cell lines were cultured in RPMI 1640 (for CT-26) or DMEM (for HEK-293) containing 10% fetal bovine serum (FBS, Zhejiang Tianhang Biotechnology Co. Ltd., Hangzhou, China) and 1% penicillin/streptomycin (Zhejiang Tianhang Biotechnology Co. Ltd., Hangzhou, China). Cells grew as a monolayer and were detached upon confluence using trypsin (0.5% w/v in PBS, Zhejiang Tianhang Biotechnology Co. Ltd., Hangzhou, China). The cells were harvested from the cell culture medium by incubating in trypsin solution for 3 min. The cells were centrifuged, and the supernatant discarded. A 3 mL portion of serum-supplemented cell culture medium was added to neutralize any residual trypsin. The cells were re-suspended in serum-supplemented RPMI 1640 (for CT-26) or DMEM (for HEK-293) at a concentration of 5 × 10^4 cells per 1 mL. Cells were cultured at 37 °C and 5% CO2 for MTT studies.
(§2) The CT-26 or HEK-293 cells were seeded at a density of 1 × 10^4 cells per well in 100 µL of complete RPMI 1640 (CT-26) or DMEM (for HEK-293), and cultured for 16 h for attachment. The culture medium was then replaced by a serum-free medium containing various concentrations of pristine PUE, I, and II. […] After incubating the cells at 37 °C for 4 h, the MTT solution was removed and DMSO (100 μL) added to dissolve the formazan crystals formed, and the microplates were agitated for 5 min at a medium rate before the spectrophotometric measurement at a wavelength of 570 nm on a microplate reader. […] The relative cell viability (%) related to control cells was calculated by the formula below: V%=[A]experimental−[A]blank/[A]control−[A]blank×100% where V% is the percentage of cell viability, [A]experimental is the absorbance of the wells culturing the treated cells, [A]blank is the absorbance of the blank, and [A]control is the absorbance of the wells culturing untreated cells.

CT-26 cancer cell lines = assay: Cytotoxicity evaluation by MTT assay, CT-26; assay type: cell-based, murine; details: CT-26, culturing 24 h
Experimental: as §1, §2

[1] = Dissolution rate measurement (UV, 250 mL medium, 150 RPM, 2 h, 37 °C); assay type: physicochemical; details: 37 °C
Experimental: The solubility and dissolution studies of pure PUE, I, and II were measured using a Thermo Scientific Evolution 300 UV spectrometer in deionized water at pH 7.0, gastrointestinal tract at pH 1.2, and phosphate buffer at pH 6.8 solution at 37 °C. The concentration was calculated utilizing a standard curve, which was made by measuring the absorbance of different concentrations at their λmax. A superfluity sum of the sample was added to 10 mL of H2O medium, pH 1.2 and pH 6.8 phosphate, respectively.
The oversaturated solution was stirred at 500 RPM by magnetic stirring at 37 °C for 24 h and the suspension was filtered through Whatman’s […] syringe channel, diluted sufficiently and the absorbance was measured at their λmax. For the dissolution rate, the sample was specifically poured into 250 mL pH 7.0 water, pH 1.2 gastrointestinal tract, and pH 6.8 phosphates medium and then stirred at 150 RPM for 2h at 37 °C. Each solution was measured by the absorbance at λmax. At customary interims, the solution was replenished with 3 mL of the respective blank solution to maintain an overall steady volume.

O=C(O)[C@@H]1CCCN1.O=c1c(-c2ccc(O)cc2)coc2c([C@@H]3O[C@H](CO)[C@@H](O)[C@H](O)[C@H]3O)c(O)ccc12 [I, [PUE][PRO]]
cytotoxicity (MTT cell viability) (HEK-293 cell lines): negligible cytotoxicity | cytotoxicity (MTT cell viability) (CT-26 cancer cell lines): negligible cytotoxicity | Time-dependent dissolution rate ([1]; Water, 5 min): 0.220 mg/mL | Time-dependent dissolution rate ([1]; Water, 10 min): 0.343 mg/mL | Time-dependent dissolution rate ([1]; Water, 15 min): 0.452 mg/mL | Time-dependent dissolution rate ([1]; Water, 20 min): 0.533 mg/mL | Time-dependent dissolution rate ([1]; Water, 25 min): 0.591 mg/mL | Time-dependent dissolution rate ([1]; Water, 30 min): 0.674 mg/mL | Time-dependent dissolution rate ([1]; Water, 40 min): 0.767 mg/mL | Time-dependent dissolution rate ([1]; Water, 50 min): 0.945 mg/mL | Time-dependent dissolution rate ([1]; Water, 60 min): 1.045 mg/mL | Time-dependent dissolution rate ([1]; Water, 80 min): 1.373 mg/mL | Time-dependent dissolution rate ([1]; Water, 100 min): 1.503 mg/mL | Time-dependent dissolution rate ([1]; Water, 120 min): 1.645 mg/mL | Time-dependent dissolution rate ([1]; pH 1.2, 5 min): 0.013 mg/mL | Time-dependent dissolution rate ([1]; pH 1.2, 10 min): 0.035 mg/mL | Time-dependent dissolution rate ([1]; pH 1.2, 15 min): 0.122 mg/mL | Time-dependent dissolution rate ([1]; pH 1.2, 20 min): 0.192 mg/mL | Time-dependent dissolution rate ([1]; pH 1.2, 25 min): 0.249 mg/mL | Time-dependent dissolution rate ([1]; pH 1.2, 30 min): 0.356 mg/mL | Time-dependent dissolution rate ([1]; pH 1.2, 40 min): 0.588 mg/mL | Time-dependent dissolution rate ([1]; pH 1.2, 50 min): 0.711 mg/mL | Time-dependent dissolution rate ([1]; pH 1.2, 60 min): 0.958 mg/mL | Time-dependent dissolution rate ([1]; pH 1.2, 80 min): 1.159 mg/mL | Time-dependent dissolution rate ([1]; pH 1.2, 100 min): 1.383 mg/mL | Time-dependent dissolution rate ([1]; pH 1.2, 120 min): 1.603 mg/mL | Time-dependent dissolution rate ([1]; pH 6.8, 5 min): 0.207 mg/mL | Time-dependent dissolution rate ([1]; pH 6.8, 10 min): 0.291 mg/mL | Time-dependent dissolution rate ([1]; pH 6.8, 15 min): 0.384 mg/mL | Time-dependent dissolution rate ([1]; pH 6.8, 20 min): 0.493 mg/mL | Time-dependent dissolution rate ([1]; pH 6.8, 25 min): 0.570 mg/mL | Time-dependent dissolution rate ([1]; pH 6.8, 30 min): 0.664 mg/mL | Time-dependent dissolution rate ([1]; pH 6.8, 40 min): 0.786 mg/mL | Time-dependent dissolution rate ([1]; pH 6.8, 50 min): 0.850 mg/mL | Time-dependent dissolution rate ([1]; pH 6.8, 60 min): 0.918 mg/mL | Time-dependent dissolution rate ([1]; pH 6.8, 80 min): 1.183 mg/mL | Time-dependent dissolution rate ([1]; pH 6.8, 100 min): 1.265 mg/mL | Time-dependent dissolution rate ([1]; pH 6.8, 120 min): 1.303 mg/mL
